The subject of data set [1] is A. lugdunensis (AcaVNAK02). The data set is described as follows: Amoebicidal activity assay on trophozoites. The data set is classed as cell-based. The settings on record: Acanthamoeba lugdunensis, 24 h of incubation. As to the method: (§1) The activity against two clinical isolates of free-living amoebae, Acanthamoeba lugdunensis (strain AcaVNAK02) and Acanthamoeba quina (strain AcaVNAK03), both belonging to the T4 genotype, was tested in vitro as previously described. The trophozoites were cultivated in 25 cm^2 tissue culture flasks under axenic conditions in peptone-yeast extract-glucose medium (PYG). The cultivation was carried out under aerobic conditions at laboratory temperature. For the experiments, a fresh 72 h culture was used. Acanthamoebae adherent to flasks represented the trophozoite form and was used in the subsequent assay. Experiments were carried out in 96-well microtiter plates under sterile conditions at 37 °C. Each well was seeded with 100 µL (2 × 10^5 cells mL^−1) of a trophozoite suspension. Then, 100 µL of a freshly prepared medium containing a tested compound at 6 different concentrations was added to all wells, except for the untreated control wells that received 100 µL of the pure medium. Each compound was tested at final concentrations of 500, 250, 125, 62.5, 31.25, and 15.6 µM. The reduction of trophozoites was recorded after 24 h by counting the surviving cells in a Bürker–Türk hemocytometer. The growth control after 24 h (amoebae in inoculum without treatment): A. lugdunensis (AcaVNAK02): 2.5 × 10^5 cells mL^−1, A. quina (AcaVNAK03): 2.1 × 10^5cells/mL comparing to initial inoculum 1 × 10^5 cells mL^−1. The viability of trophozoites was determined by trypan blue exclusion. The EC50 (effective concentration of tested compound that reduces the survival of amoebae by 50%) values were calculated by linear regression analysis using Microsoft Office Excel 2016 (Microsoft Corporation, Redmond, WA, USA) software. All experiments were performed in quadruplicate for each concentration.

The test system of another data set is A. quina (AcaVNAK03). The data set is described as follows: Amoebicidal activity assay on trophozoites. The data set is classed as cell-based. The settings on record: Acanthamoeba quina, 24 h of incubation. As to the method:
as §1

In data set [2] the test system is MDA-MB-231 (human mammary gland adenocarcinoma). The data set is described as follows: MTS cell proliferation/viability assay. The data set is classed as cell-based. The note with it: MDA-MB-231, MTS, 72 h. The method, then: (§2) The human cancer cell line HCT116 (human colorectal adenocarcinoma), HeLa (human cervical adenocarcinoma), Jurkat (human leukemic T cell lymphoma), and MDA-MB-231 (human mammary gland adenocarcinoma, triple-negative) were cultured in RPMI 1640 medium (Biosera, Kansas City, MO, USA). MCF-7 (human breast adenocarcinoma), A2058 (human metastatic melanoma), PANC-1 (human pancreatic adenocarcinoma), and NIH 3T3 (murine fibroblasts) cell lines were maintained in a growth medium consisting of high glucose Dulbecco’s Modified Eagle Medium with sodium pyruvate (Biosera, Kansas City, MO, USA). MCF-10A cell line (human mammary gland epithelial cells) was maintained in a growth medium consisting of high glucose DMEM F12 Medium (Biosera, Kansas City, MO, USA) + Suppl. (insulin, EGF-[…], HC-hydrocortisone, choleratoxin all Sigma, Steinheim, Germany). The growth medium was supplemented with a 10% fetal bovine serum, penicillin (100 IU/mL), and streptomycin (100 μg/mL) (all Invitrogen, Carlsbad, CA, USA), and cells were maintained in an atmosphere containing 5% CO2 in humidified air at 37 °C. Cell viability, estimated by trypan exclusion, was greater than 95% before each experiment.
(§3) The metabolic activity colorimetric assay (MTS) was used to determine the effects of CA (c = 10–300 µM) and compounds CAP 6, CAP 8, CAP 10, and CAP 12 (c = 1–100 µM) on the metabolic activity of several cell lines. After 72 h of incubation, 10 µL of MTS (Promega, Madison, WI, USA) was added to each well according to the CellTiter 96® AQueous One Solution Cell Proliferation Assay protocol. After a minimum of 1 h incubation, the absorbance was measured at 490 nm using the automated Cytation^TM 3 Cell Imaging Multi-Mode Reader (Biotek, Winooski, VT, USA). The absorbance of the control wells was taken as 1.0 (100%), and the results were expressed as a fold of the control. All experiments were performed in triplicate. Ideal predictive IC50 values were calculated from MTS analyses-based concentration concentration-dependent trends.

The test system of data set [3] is HCT116 (human colorectal adenocarcinoma). As to the kind of experiment: MTS cell proliferation/viability assay. The settings on record: HCT-116, 72 h. The data set is classed as cell-based. As to the method:
as §2, §3

The test system of data set [4] is A2058 (human metastatic melanoma). The data set is described as follows: MTS cell proliferation/viability assay. The data set is classed as cell-based. The note with it: 72 h. As to the method: as §2, §3
The next data set has as its system tested cancer cell lines. As to the kind of experiment: MTS assay, span over the tested cell lines. The settings on record: Homo sapiens, 72 h. The data set is classed as cell-based. As to the method:
as §2, §3
Background: Formazan colour is commonly taken as a measure of viable cells.

Data set [5] can be described thus: Equilibrium surface tension measurements (Wilhelmy plate). The data set is classed as physicochemical. The settings on record: 25 °C; for cmc (critical micelle concentration) / γcmc (surface tension at the cmc): aqueous solution; for Acmc (surface area per head group at surface saturation): water/air interface, from Gibbs adsorption isotherm. The method, then:
The physicochemical properties of the compounds were investigated by the measurements of surface tension of their aqueous solutions. The critical micelle concentration (cmc), the surface tension value at the cmc (γcmc), and the surface area per head group at the surface saturation (Acmc) were determined.
The equilibrium surface tension measurements were carried out according to the procedure described previously. The Wilhelmy plate technique was used for the determination of the solvent surface tension values. Measurements were performed with a Krüss 100 MK2 tensiometer. All samples were prepared by dissolving amphiphilic compounds in deionized water. The stock solutions were prepared in a volumetric flask. The measurements were performed at 25 ± 0.1 °C. The measurements of equilibrium surface tension were taken repeatedly. The values were recorded every 360 s. The measurement was stopped if the difference between the values of two successive measurements was less than 5 × 10^−5 N·m^−1. The breakpoint of the linear parts of the surface tension vs. log c curve was used for the determination of the critical micelle concentration (cmc) and surface tension at the cmc (γcmc). The adsorbed amount of surfactant Γcmc was also determined from surface tension data. The value was calculated using the Gibbs adsorption isotherm: Γcmc=dγ/dlogcT/2.303iRT where γ represents the surface tension (mN/m), c is the concentration of surfactant, i represents the prefactor (CAP have i = 2), R is the gas constant, and T represents the absolute temperature. The slope below the cmc in the surface tension vs. log c plots was used for the determination of the surface excess. The values of area per head group at the water/air interface (Acmc) were obtained from the following equation: Acmc=10^18/NAΓcmc where NA represents the Avogadros constant.

The test system of data set [6] is Acanthamoeba trophozoites. The data set is described as follows: Amoebicidal activity assay, both strains. The data set is classed as cell-based. The method, then: as §1, with “The growth control after 24 h (amoebae in inoculum without treatment): A. lugdunensis (AcaVNAK02): 2.5 × 10^5 cells mL^−1, A. quina (AcaVNAK03): 2.1 × 10^5cells/mL comparing to initial inoculum 1 × 10^5 cells mL^−1.” left out, “The EC50 (effective concentration of tested compound that reduces the survival of amoebae by 50%) values were calculated by linear regression analysis using Microsoft Office Excel 2016 (Microsoft Corporation, Redmond, WA, USA) software. All experiments were performed in quadruplicate for each concentration.” left out

The EC50 is the concentration giving half of the maximal effect. A higher EC50 goes with a less potent agent. As a reminder, the IC50 is the midpoint of a concentration-inhibition curve. Read a low IC50 as greater potency in that assay.

With `CC(=O)Oc1ccc(/C=C/C(=O)OCCCCCCCCCCCC[P+](c2ccccc2)(c2ccccc2)c2ccccc2)cc1OC(C)=O` [CAP 12, P,P,P-triphenyl-12-{(2E)-3-[3,4-(diacetyloxy)penyl]prop-2-enoyloxy}dodecane-1-phosphanium bromide], the EC50 is 3120 ± 941 µM in data set [1] and 3320 ± 2060 µM in the data set with A. quina (AcaVNAK03). Also, the IC50 in data set [2] was 3.5 ± 0.6 µM; in data set [3] it was 8.3 ± 0.6 µM; in data set [4], 9 ± 0.5 µM; in the data set with tested cancer cell lines, 0.9 to 9.5 µM. The “cmc (critical micelle concentration)” value in data set [5] was 1.0 × 10^−3 mol·dm^−3. For the same compound, the “γcmc (surface tension at the cmc)” value in data set [5] is listed as 39.4 mN·m^−1. In addition, in data set [5], the “Acmc (surface area per head group at surface saturation)” value is listed as 1.33 nm^2.
Regarding `CC(=O)Oc1ccc(/C=C/C(=O)OCCCCCCCC[P+](c2ccccc2)(c2ccccc2)c2ccccc2)cc1OC(C)=O` [CAP 8, P,P,P-triphenyl-8-{(2E)-3-[3,4-(diacetyloxy)penyl]prop-2-enoyloxy}okctane-1-phosphanium bromide], the EC50 in data set [1] came to 99.8 ± 23.7 µM; in the data set on A. quina (AcaVNAK03), 94.1 ± 14.5 µM. The IC50 in data set [2] is 4.8 ± 0.5 µM; in data set [3], 8.3 ± 0.6 µM; in data set [4], 9.4 ± 0.3 µM; in the data set with tested cancer cell lines, 4.8 to 9.4 µM. The “cmc (critical micelle concentration)” value in data set [5] is 5.2 × 10^−3 mol·dm^−3. Further, the “γcmc (surface tension at the cmc)” value in data set [5] is on record as 37.7 mN·m^−1. For the same compound, the “Acmc (surface area per head group at surface saturation)” value in data set [5] was 0.82 nm^2.
For `CC(=O)Oc1ccc(/C=C/C(=O)OCCCCCC[P+](c2ccccc2)(c2ccccc2)c2ccccc2)cc1OC(C)=O` [CAP 6, P,P,P-triphenyl-6-{(2E)-3-[3,4-(diacetyloxy)penyl]prop-2-enoyloxy}hexane-1-phosphanium bromide], the EC50 was 74.2 ± 18.4 µM in data set [1] and 44.1 ± 9.2 µM with A. quina (AcaVNAK03). Moreover, the half-maximal inhibitory concentration (IC50) is 37 ± 0.3 µM in data set [2], 31 ± 0.4 µM in data set [3], 30.5 ± 1.5 µM in data set [4] and 30.5 to 44.5 µM in the data set with tested cancer cell lines. Moreover, the “cmc (critical micelle concentration)” value in data set [5] was 7.5 × 10^−3 mol·dm^−3. Besides, in data set [5], the “γcmc (surface tension at the cmc)” value was 36.4 mN·m^−1. Also, the “Acmc (surface area per head group at surface saturation)” value in data set [5] amounted to 0.84 nm^2. In data set [6] (comparison to compounds of ref 15), the “times higher inhibitory activity than phosphanium salts of rosmarinic acid” value is “more than 15 times”.
Consider `O=C(O)C=Cc1ccc(O)c(O)c1` [CA, 3-(3,4-dihydroxyphenyl)-2-propenoic acid, reference compound], for which the EC50 in data set [1] was over 100000 µM; in the data set with A. quina (AcaVNAK03) it was 3000 ± 1510 µM; in data set [6] (Acanthamoeba, after 24 h), at least 3000 µM. Further, the IC50 (in data set [2]; in data set [3]; in data set [4]; with tested cancer cell lines) was over 300 µM throughout.
`CC(=O)Oc1ccc(/C=C/C(=O)OCCCCCCCCCC[P+](c2ccccc2)(c2ccccc2)c2ccccc2)cc1OC(C)=O` [CAP 10, P,P,P-triphenyl-10-{(2E)-3-[3,4-(diacetyloxy)penyl]prop-2-enoyloxy}decane-1-phosphanium bromide]: the EC50 in data set [1] came to 834 ± 303 µM; with A. quina (AcaVNAK03), 291 ± 36.8 µM. Besides, the IC50 was 4.9 ± 0.5 µM in data set [2], 9.2 ± 0.3 µM in data set [3], 9 ± 0.5 µM in data set [4] and 0.9 to 9.5 µM in the data set on tested cancer cell lines. For the same compound, in data set [5], the “cmc (critical micelle concentration)” value is 2.2 × 10^−3 mol·dm^−3. For the same compound, the “γcmc (surface tension at the cmc)” value in data set [5] was found to be 37.1 mN·m^−1. In addition, in data set [5], the “Acmc (surface area per head group at surface saturation)” value came to 1.02 nm^2.

Source of the values: article PMC10817097, “Caffeic Acid Phosphanium Derivatives: Potential Selective Antitumor, Antimicrobial and Antiprotozoal Agents” (International Journal of Molecular Sciences, 2024).
